In patent US10543189B2, “2-acetylnaphtho[2,3-b]furan -4,9-dione for use on treating cancer” (Boston Biomedical, Inc., priority 2013, dated 2020):

Assay: Particle size distribution of milled/micronized Compound 1 crystals
Type: physicochemical
Conditions: for Particle Size D50: median size; for Particle Size D90: size for which 90% of particles are equal or smaller
Protocol: For example, Compound 1 crystals were milled (The Retsch Ultra centrifugal Mill ZM 200; Single pass, at 18,000 rpm using 0.25 mm screen) to a median particle size of about 20 micron. Table 3 presents the resultant distribution of particle sizes (Malvern 2000 with the Hydro 2000S wet accessory). The columns present the maximum size of particles in the cumulative percent total presented in the subscript at the header of the column. For example, the column D90 presents the size for which 90% of the particles have an equal or lesser size. The column D50 represents the median size—half of the particles have a greater size, and half of the particles have an equal or lesser size.
For example, Compound 1 crystals were micronized using a jet milling method (4″ Jet Mill, Venturi pressure=40, Mill pressure=100, Feed rate=1304 g/hour) to a median particle size of about 2 micron, as presented in Table 4. Particle size analysis was performed using a dry particle method (Sympatec Helos/KF Particle Size Analyzer).

SMILES | Particle Size D10 | Particle Size D50 | Particle Size D90
CC(=O)c1cc2c(o1)C(=O)c1ccccc1C2=O [Sample B, 2-acetylnaphtho[2,3-b]furan-4,9-dione] | 2.3 microns | 20.2 microns | 48.9 microns
CC(=O)c1cc2c(o1)C(=O)c1ccccc1C2=O [Sample A, 2-acetylnaphtho[2,3-b]furan-4,9-dione] | 0.53 microns | 2.07 microns | 4.63 microns
